Experimental findings from patent publication US20100234372A1, “SUBSTITUTED 2-MERCAPTOQUINOLINE-3-CARBOXAMIDES AS KCNQ2/3 MODULATORS” (GRUNENTHAL GMBH, priority 2009, published 2010) are described below.

The target in test [1] is T1, KCNQ2/3 channels (Homo sapiens, UniProt O43525+O43526).
T1 construct: expressed in transfected cells; host or cells: CHO-K1 cells
Nature of the test: Fluorescence assay using a voltage-sensitive dye (fluorimetry). The format is cell-based. To be noted: for EC50: CHO-K1 cells expressing KCNQ2/3 channels; for Emax at 1 µM: 50 μM retigabine = 100%, CHO-K1 cells expressing KCNQ2/3, read-out: Fluorimetry % efficacy at 1 μM (50 μM retigabine = 100%). As to the method:
[…] CHO-K1 cells expressing KCNQ2/3 channels are cultivated adherently at 37° C., 5% CO2 and 95% humidity in cell culture bottles (e.g. 80 cm^2 TC flasks, Nunc) with DMEM-high glucose (Sigma Aldrich, D7777) including 10% FCS (PAN Biotech, e.g. 3302-P270521) or alternatively MEM Alpha Medium (1×, liquid, Invitrogen, #22571), 10% foetal calf serum (FCS) (Invitrogen, #10270-106, heat-inactivated) and the necessary selection antibiotics.
Before being seeded out for the measurements, the cells are washed with a 1×DPBS buffer without Ca^2+/Mg^2+ (e.g. Invitrogen, #14190-094) and detached from the bottom of the culture vessel by means of Accutase (PAA Laboratories, #L11-007) (incubation with Accutase for 15 min at 37° C.). The cell count then present is determined using a CASY™ cell counter (TCC model, Scharfe System) in order subsequently to apply 20,000 to 30,000 cells/well/100 μl of the described nutrient medium, depending on density optimisation for the individual cell line, to 96-well measuring plates of the Corning™ CeIIBIND™ type (flat clear-bottom black polystyrene microplates, #3340). Incubation is then carried out for one hour at room temperature, without gassing or adjusting the humidity, followed by incubation for 24 hours at 37° C., 5% CO2 and 95% humidity.
The voltage-sensitive fluorescent dye from the Membrane Potential Assay Kit (Red™ bulk format part R8123 for FLIPR, MDS Analytical Technologies™) is prepared by dissolving the contents of a vessel of Membrane Potential Assay Kit Red Component A in 200 ml of extracellular buffer (ES buffer, 120 mM NaCl, 1 mM KCl, 10 mM HEPES, 2 mM CaCl2, 2 mM MgCl2, 10 mM glucose; pH 7.4). After removal of the nutrient medium, the cells are washed with 200 μl of ES buffer, then covered with a layer of 100 μl of the dye solution prepared above and incubated for 45 min at room temperature with exclusion of light.
The fluorescence measurements are carried out with a BMG Labtech FLUOstar™, BMG Labtech NOVOstar™ or BMG Labtech POLARstar™ instrument (525 nm excitation, 560 nm emission, bottom-read mode). After incubation of the dye, 50 μl of the substances to be tested in the desired concentrations, or 50 μl of ES buffer for control purposes, are introduced into separate cavities of the measuring plate and incubated for 30 min at room temperature whilst being shielded from light. The fluorescence intensity of the dye is then measured for 5 min and the fluorescence value F1 of each well is thus determined at a given, constant time. 15 μl of a […] KCl solution ([…]) are then added to each well. The change in fluorescence is subsequently measured until all relevant measured values have been obtained (mainly 5-30 min). At a given time after KCl application, a fluorescence value F2 is determined, in this case at the time of the fluorescence peak.
For calculation, the fluorescence intensity F2 is compared with the fluorescence intensity F1, and the agonistic activity of the target compound on the potassium channel is determined therefrom. F2 and F1 are calculated as follows: […]
is determined by adding to the reaction batch only the buffer solution instead of the substance to be tested, determining the value F1K of the fluorescence intensity, adding the potassium ions as described above and measuring a value F2K of the fluorescence intensity. Then F2K and F1K are calculated as follows: […]
Calculations of EC50 values are carried out with the aid of Prism v4.0 software (GraphPad Software™).

The test system of test [2] is Male Sprague-Dawley rats. Nature of the test: Low-intensity tail flick in rats. Type of test: in vivo. To be noted: po, rat; for inhibition in vivo at 21.5 mg/kg / inhibition in vivo at 10 mg/kg: p.o., MPE, read-out: Low-intensity tail flick rat p.o. % effect (dose [mg/kg]). An excerpt:
The antinociceptive activity of the test substance against an acute noxic thermal stimulant was examined in the tail-flick test in rats using the method described by D′Amour and Smith (J. Pharm. Exp. Ther. 72, 74 79 (1941)). Male Sprague-Dawley rats weighing between 200 and 250 g were used (breeder: Janvier, Le Genest St. Isle, France). The animals were placed in special test compartments and the base of the tail was exposed to a focused light beam from an analgesia meter (model 2011, Rhema Labortechnik, Hofheim, Germany). 10 animals were used per group. Before administering a substance according to the invention, the tail-flick latency (time from switching on the light beam to the flick of the tail) was measured twice at an interval of five minutes and the average was defined as the control latency time. The intensity of the light beam was chosen so that the control latency time was 7 to 9 seconds.
The measurement of the tail-flick latency was then repeated 10, 20, 30 and 60 minutes after peroral administration of the substance. The antinociceptive action of the test substance was determined as the increase in the tail-flick latency time using the following formula:
where T0=control latency time before administration of the substance, T1=latency time after administration of the substance, T2=maximum exposure time to the light beam (30 seconds), MPE=maximum possible effect.
Analysis of variance (repeated measures ANOVA) was used to test for statistically significant differences between the substance and vehicle group. The significance level was set at ≦0.05.

Usually EC50 stands for the concentration that produces a half-maximal response. With `CCSc1nc2cc(C(F)(F)F)ccc2cc1C(=O)NCc1cccs1` [compound 14], in test [1], the EC50 was found to be 291 nM and the Emax at 1 µM was determined as 223%. For the same compound, in test [2], the inhibition in vivo at 21.5 mg/kg stood at 9%.

Regarding `CCSc1nc2cc(C(F)(F)F)ccc2c(C)c1C(=O)NCc1cccs1` [compound 30, 2-Ethylsulfanyl-4-methyl-N-(thiophen-2-yl-methyl)-7-(trifluoromethyl)-quinoline-3-carboxamide], in test [1], a half-maximal response (EC50) required 82 nM and the Emax at 1 µM came to 141%. Further, the inhibition in vivo at 10 mg/kg in test [2] worked out at 31%. Consider `CCSc1nc2cc(C(F)(F)F)ccc2c(C)c1C(=O)NCCC(C)C` [compound 37], for which, in test [1], the EC50 came to 85 nM and the Emax at 1 µM was 121%. Further, in test [2], the inhibition in vivo at 10 mg/kg amounted to 0%. Turning to `CCSc1nc2cc(C(F)(F)F)ccc2c(C)c1C(=O)NCc1cccnc1` [compound 42], in test [1], it took 1690 nM to reach a half-maximal effect (EC50) and the Emax at 1 µM was found to be 175%. For the same compound, the inhibition in vivo at 21.5 mg/kg in test [2] was determined as 51%. What is called ED50 is the dose that gives a 50% effect, or the effect in half of the subjects. As for `CCSc1nc2cc(C(F)(F)F)ccc2c(C)c1C(=O)NCc1cccc(F)c1` [compound 76], in test [1], the EC50 came to 92 nM and the Emax at 1 µM was determined as 182%. In test [2], this compound had an ED50 of 6.3 mg/kg. For the compound `CCSc1nc2cc(C(F)(F)F)ccc2c(C)c1C(=O)NCc1ccc(C)o1` [compound 111], in test [1], the EC50 was 86 nM and the Emax at 1 µM was found to be 178%. As for `CCSc1nc2cc(C(F)(F)F)ccc2c(C)c1C(=O)NCc1cccc(O)c1` [compound 113], in test [1], the EC50 came out at 3990 nM and the Emax at 1 µM was found to be 66%. Consider `CSc1nc2cc(C(F)(F)F)ccc2c(C)c1C(=O)NCc1cccc(F)c1` [compound 114], for which, in test [1], the EC50 was 169 nM and the Emax at 1 µM worked out at 175%. In the same order, the values of `CSc1nc2cc(C(F)(F)F)ccc2c(C)c1C(=O)NCc1ccc(F)cc1` [compound 115] are 136 nM and 150%.

As to `CCSc1nc2ccc(F)cc2c(C)c1C(=O)NCc1cccc(F)c1` [compound 116], in test [1], a half-maximal response (EC50) required 598 nM and the Emax at 1 µM came to 147%.

Take `CCSc1nc2ccc(F)cc2c(C)c1C(=O)NCc1ccc(F)cc1` [compound 117]: in test [1], the EC50 stood at 222 nM and the Emax at 1 µM was 87%. In the same order, the values of `CCSc1nc2cc(F)c(F)cc2c(C)c1C(=O)NCc1cccc(F)c1` [compound 118] are 147 nM and 149%.

As for `CCSc1nc2cc(C(F)(F)F)ccc2c(C)c1C(=O)NCc1ccc(O)cc1` [compound 119], in test [1], the EC50 was determined as 2750 nM and the Emax at 1 µM was found to be 72%.

With `CCSc1nc2c(F)cccc2c(C)c1C(=O)NCc1cccc(F)c1` [compound 120], in test [1], a half-maximal effect (EC50) was put at 1210 nM and the Emax at 1 µM stood at 157%. In the same order, the values of `CCSc1nc2c(F)cccc2c(C)c1C(=O)NCc1ccc(F)cc1` [compound 121] are 334 nM and 90%.

Consider `CCSc1nc2cc(C(F)(F)F)ccc2c(Cl)c1C(=O)NCc1cccc(F)c1` [compound 122, 4-Chloro-2-ethylsulfanyl-N-[(3-fluorophenyl)-methyl]-7-(trifluoromethyl)-quinoline-3-carboxamide], for which, in test [1], the EC50 amounted to 65 nM and the Emax at 1 µM came out at 171%. `CCSc1nc2cccc(F)c2c(C)c1C(=O)NCc1cccc(F)c1` [compound 123]: the Emax at 1 µM in test [1] was determined as 8%. As for `CCSc1nc2cccc(F)c2c(C)c1C(=O)NCc1ccc(F)cc1` [compound 124], in test [1], the Emax at 1 µM was found to be 8%. In the case of `CCSc1nc2cccc(OC)c2c(C)c1C(=O)NCc1cccc(F)c1` [compound 125], in test [1], the Emax at 1 µM came to 14%. Still for that read-out and setting: as for `CCSc1nc2cccc(OC)c2c(C)c1C(=O)NCc1ccc(F)cc1` [compound 126], the figure is 5%. The same measure, in the same setting: then `CCSc1nc2cccc(O)c2c(C)c1C(=O)NCc1cccc(F)c1` [compound 127], with 18%; and `CCSc1nc2ccc(O)cc2c(C)c1C(=O)NCc1cccc(F)c1` [compound 128], with 39%; and `CCSc1nc2cc(O)ccc2c(C)c1C(=O)NCc1cccc(F)c1` [compound 129], with 12%. For the compound `CCSc1nc2cc(C(F)(F)F)ccc2c(OC)c1C(=O)NCc1cccc(F)c1` [compound 130, 2-Ethylsulfanyl-N-[(3-fluorophenyl)-methyl]-4-methoxy-7-(trifluoromethyl)-quinoline-3-carboxamide], in test [1], the EC50 amounted to 58 nM and the Emax at 1 µM turned out to be 180%. The corresponding values for `CCSc1nc2cc(C(F)(F)F)ccc2c(N(C)C)c1C(=O)NCc1cccc(F)c1` [compound 131, 4-Dimethylamino-2-ethylsulfanyl-N-[(3-fluorophenyl)-methyl]-7-(trifluoromethyl)-quinoline-3-carboxamide] are 1820 nM and 104%. The corresponding values for `CCSc1nc2cc(OC(F)(F)F)ccc2c(C)c1C(=O)NCc1ccc(F)cc1` [compound 132, 2-Ethylsulfanyl-N-[(4-fluorophenyl)-methyl]-4-methyl-7-(trifluoromethyloxy)-quinoline-3-carboxamide] are 51 nM and 161%.

For `CCSc1nc2cc(N(C)C)ccc2c(C)c1C(=O)NCc1ccc(F)cc1` [compound 133], in test [1], the Emax at 1 µM amounted to 15%. On to `CCSc1nc2cc(N3CCOCC3)ccc2c(C)c1C(=O)NCc1cccc(F)c1` [compound 134], for which, in test [1], the Emax at 1 µM amounted to 21%. In the case of `CCSc1nc2cc(N3CCOCC3)ccc2c(C)c1C(=O)NCc1ccc(F)cc1` [compound 135], in test [1], the Emax at 1 µM is 6%. As for `CCSc1nc2c(C(F)(F)F)cccc2c(C)c1C(=O)NCc1cccc(F)c1` [compound 136], in test [1], the EC50 is 227 nM and the Emax at 1 µM was 164%. On to `CCSc1nc2c(C(F)(F)F)cccc2c(C)c1C(=O)NCc1ccc(F)cc1` [compound 137], for which, in test [1], the EC50 came out at 225 nM and the Emax at 1 µM amounted to 166%. The corresponding values for `CCSc1nc2c(OC)cccc2c(C)c1C(=O)NCc1cccc(F)c1` [compound 138] are 2240 nM and 91%. The corresponding values for `CCSc1nc2c(OC)cccc2c(C)c1C(=O)NCc1ccc(F)cc1` [compound 139] are 1960 nM and 91%. The corresponding values for `CCSc1nc2c(O)cccc2c(C)c1C(=O)NCc1cccc(F)c1` [compound 140] are 1150 nM and 101%.
